# Data: patent publication US20020013349A1, “Methods for treating or preventing pain and anxiety” (priority 1999, published 2002)
# Tested on: rats
# Format: in vivo, rat
# Conditions: positive control; versus mean on baseline days
# Protocol: The standard test in rat to measure anxiolytic effect (Geller conflict procedure) was designed by Geller and Seifter and modified by Pollard and Howard (Geller & Seifter, Psychophamracologia 1:482-492 (1960: Pollard & Howard, Psychopharmacology 62:117-121 (1979)). The anxiety-reducing effect of a KCNQ2/3 channel opener was measured using the Geller conflict procedure in rats. Rats are trained to press a lever to receive food pellets during daily 1 hour sessions. The sessions are divided into punished and unpunished phases. During the four, three-minute punished periods, a light signals that each lever press will produce both a pellet and a foot shock (punishment), which reduces lever pressing. The number of punished lever presses on test days (when test compound is administered) is compared to the mean on baseline days. […]
structure (smiles),measurement,value
CNC1=Nc2ccc(Cl)cc2C(c2ccccc2)=[N+]([O-])C1 [chlordiazepoxide],increase in punished lever pressing,> 50%
